The record followed here is a melting point compilation (Tetko et al.; mined from patent text by program, amines drawn as free bases though some values may be those of a salt).

Take `CCO[C@@H](Cc1ccc(OCCc2nc(-c3ccc(C(F)(F)F)cc3)oc2C)c2ccsc12)C(=O)O`: the melting point was 126 to 128 °C. Next, `CCCc1nn(-c2ccc(C(F)(F)F)cn2)cc1CCCOc1ccc(CCC(=O)O)cc1`: 118 to 119 °C; `CCCCCCCC(=O)CCCCCC(=O)N[C@@H](C)C(=O)O`: 84 to 86 °C; `COC(=O)c1c(OC)cc(OC)nc1C(F)(F)F`: 85 to 87.5 °C.

As to `C=COCCN1C(=O)N(CN2C(=O)N(CCOC=C)C(=O)C2(C)C)C(C)(C)C1=O`, the melting point was 90 to 92 °C.

Compound `COCCN1CCc2ccc(Nc3ncc(Cl)c(Nc4ccccc4C(=O)NC(C)C)n3)cc2CC1` showed a melting point of 186 to 189 °C.

`COC(=O)c1cncn1C1c2ccccc2CC1(C)C` (single isomer, unassigned; (-)): the melting point was 74 to 76 °C. Next, `O=C(O)C1CCC2C(=O)N(c3ccccc3)C(=S)N12` (centres undefined): 230 °C; `CC#CCn1nc(-c2ccc(F)cc2)c(-c2ccc(S(C)(=O)=O)cc2)cc1=O`: 81 to 82 °C.

`Cc1c(Cl)cc(N2CCN(CCCCN3C(=O)c4ccccc4S3(=O)=O)CC2)c2c1OCCO2` displayed a melting point of 136 to 137 °C.

The compound `CC(CS)C(=O)NC(C(=O)O)C(C)C` (centres undefined) registered a melting point of 150 to 157 °C. Next, `CC(C)Oc1cccc(C(=O)N2CCN(C(=O)CNC3CCN(Cc4ccccc4)CC3)C(c3ccc(Cl)c(Cl)c3)C2)c1` (racemic): 58 to 61 °C; `CNC(=O)C(C)Oc1ncn(-c2cccc(Cl)c2)n1` (centres undefined): 120 to 122 °C; `BrCc1ccc2c(-c3ccccc3)onc2c1`: 127 to 128 °C. Next, `CSC(C)(C(=O)O)c1ccc2oc(Cc3nc(-c4ccccc4)oc3C)cc2c1` (centres undefined): 178 to 179 °C. Next, `OC1=NC2CCCc3cccc(c32)N1` (centres undefined): 230 to 233 °C; `CCCCc1nn2cccc(C(=O)OC)c2c1Cc1ccc(-c2ccccc2C#N)cc1`: 92 to 95 °C. Take `NS(=O)(=O)c1cc(C(=O)O)cc(SCc2ccccn2)c1-c1ccccc1`: the melting point was 83 to 86 °C.

`Cn1cncc1C(O)(c1ccc(Cl)nc1)c1ccc2noc(-c3cccc(Cl)c3)c2c1` (centres undefined) yielded a melting point of 230 °C. Compound `CN1Cc2c(C#C[Si](C)(C)C)ncn2-c2cccc(Cl)c2C1=O` registered a melting point of 186 to 187 °C.

`CCC1C(CC)N1S(=O)(=O)c1ccc(C)cc1` (centres undefined) came in with a melting point of 69 to 70 °C. With `NC(=O)C(=O)c1cccc(Cl)c1Cl`, the melting point was 213 to 214 °C.

In turn, `C=CC(=O)OCCCCCCC(CCCCCCOC(=O)C=C)C(=O)OCCCCCCCCCCCCCCCCOc1ccc(-c2cccc(F)c2F)cc1` had a melting point of 33.8 to 35.5 °C. For the compound `CC(C)(C)OC(=O)N1CCc2cc(NC(=O)NCc3ccc4c(c3)CN(C3CCC(=O)NC3=O)C4=O)ccc2C1` (centres undefined), the melting point was in the range of 230 to 232 °C.

For the compound `Cc1nc2c(F)cccc2c(Cl)c1CCCl`, the melting point was in the range of 101 to 103 °C. Next, `C=CCNCc1noc(-c2ncn3c2CN(C)C(=O)c2c(Cl)cccc2-3)n1`: 171 to 174 °C; `COc1ccc(C(=O)Nc2c(Cl)cncc2Cl)c2c1oc1ccc([N+](=O)[O-])cc12`: 315 to 317 °C; `COc1cn(-c2cccc(C3=CCOCC3)c2F)nc(-c2ccnn2-c2ccccc2)c1=O`: 138 to 141 °C.

The compound `CC1(CNC(=O)OC(C)(C)C)CN(C(c2ccccc2)c2ccccc2)C1` registered a melting point of 106 to 107 °C. Next, `CCC(O)=C1C(=O)OC(C)(C)OC1=O`: 43 to 46 °C. Next, `CN(C)C(=O)c1ccccc1N`: 53 to 54 °C; `CCc1cc(-c2[nH]c3ccccc3c2C)cc(CC)c1OC`: 95.7 to 96.1 °C; `CCN(CC)CCNC(=O)c1ccc([N+](=O)[O-])cc1OC`: 59.3 °C.

Consider `CC1=C(C(=O)CS(=O)(=O)NC(C)C)C(c2cccc([N+](=O)[O-])c2)C(C(=O)OC(C)C)=C(C)N1` (centres undefined), for which the melting point fell in the range of 119 to 121 °C.

The melting point is the temperature, or range, at which the solid turns liquid.
